Assay results taken from PMC8802628, “Selective activation of PFKL suppresses the phagocytic oxidative burst” (Cell, 2021).

Assays:
[1] = molecular target: T1, GSDMD (Homo sapiens, UniProt P57764); assay: Recombinant GSDMD cleavage by caspase-4; format: biochemical; conditions: 10 μM
T1 sequence (P57764 1-484): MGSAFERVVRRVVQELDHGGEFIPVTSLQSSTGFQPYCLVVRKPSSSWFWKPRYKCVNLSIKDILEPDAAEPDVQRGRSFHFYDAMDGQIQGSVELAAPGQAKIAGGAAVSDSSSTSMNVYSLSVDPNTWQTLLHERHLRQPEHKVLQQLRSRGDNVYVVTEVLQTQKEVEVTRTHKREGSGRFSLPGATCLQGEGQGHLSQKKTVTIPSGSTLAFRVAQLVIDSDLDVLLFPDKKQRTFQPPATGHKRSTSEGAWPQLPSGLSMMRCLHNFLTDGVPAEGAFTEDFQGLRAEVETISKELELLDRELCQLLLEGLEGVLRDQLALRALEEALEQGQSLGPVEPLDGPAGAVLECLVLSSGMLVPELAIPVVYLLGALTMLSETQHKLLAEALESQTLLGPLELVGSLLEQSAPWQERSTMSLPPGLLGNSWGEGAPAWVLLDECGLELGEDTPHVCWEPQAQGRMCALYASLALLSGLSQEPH
Method: 1 μg recombinant GSDMD ([Aglietti et al., 2016]) was incubated with 10 μM LDC7559, 30 μM zVAD-fmk, or DMSO vehicle for 20 min, and then combined with 0.15 μg recombinant caspase-4 (750 mU; Abcam) in 20 μL of 50 mM HEPES, pH 7.2, 50 mM NaCl, 0.1% Chaps, 10 mM EDTA and 5% glycerol for 30 min at 37°C.

[2] = molecular target: T2, 14-3-3 protein beta/alpha (YWHAB) (Homo sapiens, UniProt P31946); assay: Photoaffinity labeling pull-down (Data S1); format: binding; conditions: Comparison PALP1_NA11-PALP1
T2 construct: endogenous in cells; host or cells: human blood leukocytes, labelled live
Method: Buffy coats (100 mL) were diluted with ice-cold water (540 mL) for 30 s to lyse red blood cells. Following addition of 10 x HBSS buffer (50 mL) leukocytes were pelleted for 3 min at 300 x g, then washed twice in D-PBS and resuspended in RPMI medium. Cells (2 × 10^7) were plated on 15-cm dishes in DMSO vehicle, 1 μM PALP1 or 1 μM PALP6 for 30 min at 37°C. For competition, 10 μM NA-11 was added for 15 min, and then 1 μM PALP1 was added for an additional 30 min. To crosslink the photoaffinity probe, cells were UV-irradiated (High intensity mercury spot lamp, 100W, 365 nm, UVP) in RPMI for 5 min on ice. Cells were lysed in 200 μL 10 mM Tris pH 7.5, 150 mM NaCl, 1% NP-40, 2.5 mM MgCl2, 0.5 mM CaCl2, 2% glycerol, 10 μg/mL DNase-I, and 1 x EDTA-free Protease inhibitor cocktail. Lysates from 5 plates for each condition were pooled and incubate 10 min on ice.
Biotin-DADPS tagging, biotin-streptavidin affinity purification, and on-bead digestion were performed as described ([Hewings et al., 2018]). Briefly, lysates were cleared by centrifugation and the lysate concentration adjusted to 5 mg/mL. Streptavidin Ultralink Resin (100 μL of 50% slurry, Pierce) was washed twice with PBS and mixed with 1 mL of lysate for 30 min at room temperature. […]
For the classical TPP, quantitative data from each temperature were used to generate a thermal titration curve and calculate a melting point. […]

T2 sequence (P31946 whole entry): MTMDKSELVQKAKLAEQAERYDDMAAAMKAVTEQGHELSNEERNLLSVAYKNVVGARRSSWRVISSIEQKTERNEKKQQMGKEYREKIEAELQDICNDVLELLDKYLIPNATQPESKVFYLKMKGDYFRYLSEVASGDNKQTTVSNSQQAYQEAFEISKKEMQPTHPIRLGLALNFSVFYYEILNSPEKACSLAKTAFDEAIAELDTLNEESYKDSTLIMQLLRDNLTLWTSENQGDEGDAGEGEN

Compound	cleavage of recombinant GSDMD by caspase-4 [1]	log2FC [2]
COc1ccccc1-c1cc2n(n1)Cc1ccc(NC(C)=O)cc1OC2 [LDC7559, reference compound]	did not inhibit cleavage of recombinant GSDMD by caspase-4	
CC(=O)Nc1ccc2c(c1)OCc1cc(-c3ccccc3C#CCCCO)nn1C2 [NA-11]		0.13
